Assay [1] deals with T1, Pichia alcohol oxidase (Komagataella phaffii, UniProt F2QY27).
T1 sequence (F2QY27 2-663 limits assumed): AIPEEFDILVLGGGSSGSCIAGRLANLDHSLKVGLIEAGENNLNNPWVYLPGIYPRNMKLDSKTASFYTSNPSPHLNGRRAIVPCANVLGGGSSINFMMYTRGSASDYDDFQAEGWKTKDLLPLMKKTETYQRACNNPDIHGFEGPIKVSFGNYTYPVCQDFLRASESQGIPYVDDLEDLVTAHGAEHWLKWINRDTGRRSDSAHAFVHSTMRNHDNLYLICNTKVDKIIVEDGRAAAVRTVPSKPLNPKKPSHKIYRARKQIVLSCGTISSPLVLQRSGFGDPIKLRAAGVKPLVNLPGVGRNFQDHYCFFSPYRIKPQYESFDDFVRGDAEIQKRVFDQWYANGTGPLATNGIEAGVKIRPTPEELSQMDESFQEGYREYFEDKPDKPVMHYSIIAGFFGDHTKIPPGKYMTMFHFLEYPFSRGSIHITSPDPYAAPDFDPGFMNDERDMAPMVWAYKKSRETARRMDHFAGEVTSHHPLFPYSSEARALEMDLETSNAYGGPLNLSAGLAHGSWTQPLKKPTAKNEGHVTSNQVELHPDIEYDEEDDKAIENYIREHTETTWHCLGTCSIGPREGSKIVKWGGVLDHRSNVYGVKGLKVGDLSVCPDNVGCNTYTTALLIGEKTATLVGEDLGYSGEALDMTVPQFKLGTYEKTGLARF
To be noted: crude enzyme saturated with salt crystals; assayed 1-2 minutes later.
Description: The alcohol oxidase activity for reaction with methanol was determined by the following assay procedure (dye-peroxidase method). A dye-buffer mixture was prepared by mixing 0.1 mL of an o-dianisidine solution (1 weight % o-dianisdine in water) with 12 mL of aerated 0.1 M sodium phosphate buffer (pH 7.5). The assay mixture was prepared with 2.5 mL of the dye-buffer mixture, 50 μL of methanol, 10 μL of a peroxidase solution (1 mg of horse-radish peroxidase-Sigma, Type II), and 25 μL of the alcohol oxidase solution. The assay mixture was maintained at 25° C. in a 4×1×1 cm cuvette and the increase in absorbance by the dye at 460 nm was recorded for 2 to 4 minutes. The enzyme activity was calculated by [formula] wherein 11.5 is a factor based on a standard curve prepared with known aliquots of H2 O2 and ΔA is the change in absorbance during the experimental interval.

For assay [2], the target named is T2, purified Pichia alcohol oxidase (Komagataella phaffii, UniProt F2QY27).
T2 construct: saturated solution of purified Pichia alcohol oxidase; endogenous in cells
T2 sequence (F2QY27 2-663 limits assumed): T1 sequence (F2QY27 2-663 limits assumed)
Kind of assay: biochemical. It counts as biochemical, Pichia pastoris. As to the method: A series of solutions were prepared by combining 3.9 mL standard phosphate buffer (pH 7.5) having NaN3 (g/l) as set forth in Table 8, 15 μL saturated solution of purified Pichia alcohol oxidase, and 50 μL methanol solution (% V/V in H2 O). Reaction velocity V (rate of methanol oxidation in the presence of alcohol oxidase) was monitored by a dissolved oxygen probe by following oxygen consumption (oxygen is consumed as alcohol substrate, S, is oxidized in the presence of the enzyme).

Assay [3] deals with T1, Pichia alcohol oxidase. As to the method: The samples are allowed to stand at room temperature for 15 minutes. Color and enzyme activity are monitored at that time.
Assay [4] concerns the target Hansenula polymorpha alcohol oxidase (Pichia angusta, UniProt P04841). The conditions noted are these: 1 mL crude Hansenula polymorpha enzyme preparation, a few crystals (one mg). The protocol:
Fermentation effluent from the aerobic fermentation of Hansenula polymorpha (prepared as described in Example II) was adjusted to pH 7.5 with concentrated ammonium hydroxide. Sample was homogenized and disrupted on a Dyno-Mill Model KDL using a 0.6 L vessel in a continuous operation at 30° C. using belt combination #3 and a flow of 20-30 mL/hr. The beads were lead-free glass beads with a diameter of 0.3-0.5 mm. The resulting homogenate was centrifuged for 20 minutes at 10,000×g to yield a cell-free supernatant.
One mL of this crude enzyme preparation was mixed with a few crystals (qualitative--one mg) of NaN3 is a test tube.

Assay [5] has as its target alcohol oxidase (Komagataella phaffii, UniProt F2QY27). The protocol:
3 mL of purified enzyme containing 3 mg/mL enzyme (crystallized as described in Example I) were placed in a 1-cm quartz cuvette. The solution was scanned from 350-550 nm.
where [formula] ΔA522 =change in absorbance at 522 nm upon NaN3 addition, and
ΔA522^max =total change in absorbance at 522 nm upon saturation of enzyme solution with NaN3.

Where two headings read alike, the source gives them in different places.

The text below walks through data of patent US4430427A, “Red absorbing combination of alcohol oxidase and an azide compound” (Phillips Petroleum Company, priority 1980, dated 1984).

Sequence of Hansenula polymorpha alcohol oxidase (P04841 2-664 limits assumed): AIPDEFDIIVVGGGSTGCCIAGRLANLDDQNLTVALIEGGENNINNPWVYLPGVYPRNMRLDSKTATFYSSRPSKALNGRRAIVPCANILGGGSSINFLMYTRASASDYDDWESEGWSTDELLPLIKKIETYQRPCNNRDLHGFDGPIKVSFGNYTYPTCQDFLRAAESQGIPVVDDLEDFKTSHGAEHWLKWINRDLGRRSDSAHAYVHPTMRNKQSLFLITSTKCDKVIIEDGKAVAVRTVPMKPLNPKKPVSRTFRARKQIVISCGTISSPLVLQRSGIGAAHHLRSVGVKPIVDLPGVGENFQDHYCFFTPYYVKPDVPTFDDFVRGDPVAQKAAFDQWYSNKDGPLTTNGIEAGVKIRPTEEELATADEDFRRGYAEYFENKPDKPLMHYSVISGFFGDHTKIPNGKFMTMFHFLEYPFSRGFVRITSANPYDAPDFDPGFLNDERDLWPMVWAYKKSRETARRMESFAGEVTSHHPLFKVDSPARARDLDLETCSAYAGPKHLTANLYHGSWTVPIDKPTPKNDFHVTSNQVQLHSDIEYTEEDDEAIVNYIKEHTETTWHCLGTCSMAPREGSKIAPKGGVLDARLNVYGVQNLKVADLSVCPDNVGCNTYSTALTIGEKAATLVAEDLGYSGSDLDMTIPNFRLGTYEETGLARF

With `O=P([O-])(O)O.[K+]` [KH2 PO4], in assay [1], the “Relative Enz. Act.” value is listed as 0.
On the same count and under the same terms, under `[Cl-].[Cl-].[Mg+2]` [MgCl2] stands 0; under `O=P([O-])(O)O.[Na+]` [NaH2 PO4], 0.
`[Cl-].[Li+]` [LiCl]: the “Relative Enz. Act.” value in assay [1] stood at 0.
The same measure, in the same setting: under `O=P([O-])([O-])O.[Na+].[Na+]` [Na2 HPO4] stands 4; under `[Cl-].[Na+]` [NaCl], 1.
With `CO` [methanol], the Kd in assay [2] (estimated from 1/V vs 1/[S] plots, pH 7.5, read-out: binding constant for methanol substrate, KS) was 600 µM.
For `N#CS` [KSCN], the “EU/mL* at 15 min.” value in assay [3] is recorded as 25 EU/mL.
Consider `[Cl-].[K+]` [KCl], for which the “Relative Enz. Act.” value in assay [1] amounted to 2.
A word on the Ki: it is a measure of affinity in units of concentration, obtained from inhibition or displacement. For `[N-]=[N+]=[N-].[Na+]` [NaN3, sodium azide], in assay [3] (a few crystals (about 1 mg) added to 1 mL purified enzyme solution, room temperature), the “Color at 15 min.” value is “Red immediately”. Besides, the “EU/mL* at 15 min.” value in assay [3] (a few crystals (about 1 mg) added to 1 mL purified enzyme solution, room temperature, 15 min) was 75 EU/mL. The “Color on mixing with crude enzyme preparation” value in assay [4] was “Red color forms upon mixing”. Moreover, the 1/V result was “.0488” in assay [2] (NaN3 .0001 g/l, MeOH .004 M); “.04” in assay [2] (NaN3 .0001 g/l, MeOH .016 M); “.2632” in assay [2] (NaN3 .0002 g/l, MeOH .0005 M); “.1429” in assay [2] (NaN3 .0002 g/l, MeOH .001 M); “.0725” in assay [2] (NaN3 .0002 g/l, MeOH .002 M); “.0588” in assay [2] (NaN3 .0002 g/l, MeOH .004 M). Moreover, the 1/V entry in assay [2] (NaN3 .0002 g/l, MeOH .008 M) is “.0455”; in assay [2] (NaN3 .0002 g/l, MeOH .016 M), “.0377”; in assay [2] (NaN3 .0005 g/l, MeOH .0005 M) it was “.625”; in assay [2] (NaN3 .0005 g/l, MeOH .001 M) it was “.4”; in assay [2] (NaN3 .0005 g/l, MeOH .002 M), “.1667”; in assay [2] (NaN3 .0005 g/l, MeOH .004 M), “.1111”. Besides, the 1/V entry is reported as “.0813” in assay [2] (NaN3 .0005 g/l, MeOH .008 M); “.0602” in assay [2] (NaN3 .0005 g/l, MeOH .016 M); 1 in assay [2] (NaN3 .001 g/l, MeOH .001 M); “.333” in assay [2] (NaN3 .001 g/l, MeOH .002 M); “.1667” in assay [2] (NaN3 .001 g/l, MeOH .004 M); “.111” in assay [2] (NaN3 .001 g/l, MeOH .008 M). Also, in assay [2] (NaN3 .001 g/l, MeOH .016 M), the 1/V entry is “.0645”. For the same molecule, the Ki in assay [2] (estimated from 1/V vs 1/[S] plots, pH 7.5, read-out: binding constant for NaN3 inhibitor, Ki) was 6 µM. Besides, the type of inhibition result in assay [2] (from 1/V vs 1/[S] plots) is “linear, mixed-type inhibition”. Further, the “fractional saturation, .PHI.” value is recorded as 1.000 in assay [5] (Excess (solid crystals) NaN3); “.167” in assay [5] (Moles N3^-/Moles Enzyme 1.15); “.207” in assay [5] (Moles N3^-/Moles Enzyme 1.54); “.259” in assay [5] (Moles N3^-/Moles Enzyme 1.92); “.309” in assay [5] (Moles N3^-/Moles Enzyme 2.31); “.407” in assay [5] (Moles N3^-/Moles Enzyme 3.02). Further, the “fractional saturation, .PHI.” value was “.475” in assay [5] (Moles N3^-/Moles Enzyme 3.85); “.525” in assay [5] (Moles N3^-/Moles Enzyme 4.61); “.580” in assay [5] (Moles N3^-/Moles Enzyme 5.38); “.630” in assay [5] (Moles N3^-/Moles Enzyme 6.25); “.679” in assay [5] (Moles N3^-/Moles Enzyme 6.92); “.062” in assay [5] (Moles N3^-/Moles Enzyme .38). The “fractional saturation, .PHI.” value in assay [5] (Moles N3^-/Moles Enzyme .77) is listed as “.105”. Moreover, the “number of azide binding sites (extrapolation of the stoichiometric line to the baseline)” value in assay [5] (plot of .PHI. vs ligand/enzyme mole ratio) is given as 7.6 moles of azide per mole of enzyme.
In the case of `CC(=O)O` [NaAc], in assay [1], the “Relative Enz. Act.” value is recorded as 4.
